From patent US10143686B2, “Oxidosqualene cyclase as a protein target for anticancer therapeutics” (The Curators of the University of Missouri, priority 2010, dated 2018) come the findings set out here.

Series [1] deals with LNCaP prostate cancer cells. The series is described as follows: SRB cell viability assay, LNCaP. It is filed as cell-based. As to conditions: Homo sapiens. The protocol:
(§1) The effect of OSC inhibition was evaluated in additional cancer cell lines as well. Cancer cell lines may be purchased from ATCC (Manassas, Va.). The SRB assay has been employed for determination of the inhibitory effects of RO 48-8071 on growth of different cancer cells. Cells were seeded into 96-well plates and incubated overnight at 37° C. with 5% CO2. The culture medium was removed after 24 hours, and cells were washed with DMEM/F12 medium and then treated with various concentrations of RO 48-8071 in 5% FBS culture medium for 24 and 48 hours. Surviving or adherent cells were fixed in situ by withdrawing the growth medium, adding 100 μl PBS and 100 μl 50% trichloroacetic acid and then incubating at 4° C. for one hour. Cells were washed with ice-cold water, dried at room temperature (RT), and then stained with 50 μl 4% SRB for eight minutes at RT. Unbound dye was removed by washing with cold 1% acetic acid for five times, and plates were dried at RT. Bound stain was solubilized with 150 μl 10 mM Tris buffer and absorbance of samples was read at 520 nm with a SpecTRA MAX 190 microplate reader (Molecular Devices, Sunnyvale, Calif.). Six wells were used for each concentration, and each experiment was performed two to three times.
Effect of RO 48-8071 prostate cancer cell line LNCaP viability. […] The culture mediums employed 20% FBS RPMI-1640 for culture and 10% FBS RPMI-1640 for treatment.

The next series has as its system LoVo colon cancer cells. The series is described as follows: SRB cell viability assay, LoVo. Format: cell-based. The following applies: Homo sapiens. The protocol: as §1
Effect of RO 48-8071 on colon cancer cell LoVo viability. […] The culture mediums employed 10% FBS F-12K for culture and 5% FBS F-12K for treatment.

Series [2] relates to ZR-75 breast cancer cells. In words: SRB cell viability assay, ZR-75. It is filed as cell-based. As to conditions: ZR75, ZR-75, Breast (ER+ PR+). The protocol: as §1
(§2) Effect of RO 48-8071 on estrogen, progesterone, and HER-2/neu receptors positive breast cancer cell line HCC-1428 and ZR-75 viability. […]

Series [3] deals with MCF-7 breast cancer cells. The series is described as follows: SRB cell viability assay, MCF-7. It is filed as cell-based. The following applies: Homo sapiens, MCF7, MCF-7, Breast (ER+ PR+). The protocol:
as §1
Effect of RO 48-8071 on breast cancer cell line MCF-7 viability. […]

Series [4] has as its system BT-474 breast cancer cells. The series is described as follows: SRB cell viability assay, BT-474. Format: cell-based, human. The following applies: for IC50: Homo sapiens, BT-474, Breast (ER+ PR+). The protocol: The sulforhodamine B (SRB) assay was employed to evaluate the effect of OSC inhibitor Ro 48-8071 on viability of breast cancer and normal mammary gland cells with slight modification of the original procedure established at NCI. Accordingly, the cells were seeded in 96-well plates in 100 μl culture medium and incubated overnight at 37° C. with 5% CO2. […] The surviving or adherent cells were fixed in situ by withdrawing the growth medium and adding 100 μl of PBS and 100 μl of 50% cold trichloroacetic acid and then incubating at 4° C. for 1 h. The surviving cells were washed with ice-water, dried at room temperature (RT), and then stained with 50 μl 4% SRB for 8 min at RT. Unbound dye was removed by washing 5 times with cold 1% acetic acid, and the plates were dried at RT. Bound stain was solubilized with 150 μl 10 mM Tris buffer, and absorbance of samples were measured at 520 nm with a SpecTRA MAX 190 microplate reader (Sunnyvale, Calif.). In these experiments on BT-474, T47-D, and AG11132A cell lines, six wells were used for each concentration, and each experiment was performed at least twice.
as §1
Effect of RO 48-8071 on breast cancer cell line BT-474 viability. […] The culture mediums employed 10% FBS DMEM/F12 for culture and 5% FBS DMEM/F12 for treatment.

Series [5] relates to HCC-1428 breast cancer cells. The series is described as follows: SRB cell viability assay, HCC-1428. As to conditions: Homo sapiens, HCC1428, HCC-1428, Breast (ER+ PR+). Format: cell-based. The protocol:
as §1, §2

The subject of series [6] is BT-474 human breast cancer xenograft. In words: BT-474 breast tumor xenograft in nude mice. The protocol: Female athymic nu/nu nude mice, 5 to 6 weeks-old (18-22 g) were purchased from Harland Sprague-Dawley, Inc. Nude mice were inoculated with 17-β-Estradiol pellets (1.7 mg/pellet, 60 days release) 48 hours before inoculating tumor cells. BT-474 human breast cancer cells, 5×10^6 in 0.15 ml solution mixed with matrigel and DMEM/F12 medium (4/1, v/v) were injected into each flank of mouse subcutaneously and both flanks of each mouse were injected. When tumor volume reached around 100 mm3, animal were randomly assigned to three groups and the treatment started with RO 48-8071 (5 mg/kg/day or 10 mg/kg/day) via tail-vein injection for five days, followed by same treatment every other day for five additional times as shown in the FIG. 13A. Animals in control group received the vehicle alone under identical conditions. Tumor volumes were measured by a digital caliper and calculated using the formula (L×W×H)×0.5236.
Animal weight was monitored throughout the experiment.

Another series concerns A549 lung cancer cells. In words: SRB cell viability assay, A549. It is filed as cell-based. As to conditions: Homo sapiens. The protocol:
as §1
Effect of RO 48-8071 on lung cancer cell line A549 viability. […] The culture mediums employed 10% FBS F-12K for culture and 5% FBS F-12K for treatment.

For series [7], the system named is PC-3 prostate cancer cells. In words: SRB cell viability assay, PC-3. As to conditions: Homo sapiens. Format: cell-based. The method, then:
as §1
Effect of RO 48-8071 on prostate cancer cell line PC-3 viability. […]

Setting [8] is: 24 hours, read-out: IC50 (μM) (24 hours).
The mark [9] stands for this setting: 48 hours, read-out: IC50 (μM) (48 hours).

Structures can show the parent of a compound that is named as a salt. Where two headings read alike, the source gives them in different places.

In general, IC50 refers to the midpoint of a concentration-inhibition curve. As for `C=CCN(C)CCCCCCOc1ccc(C(=O)c2ccc(Br)cc2)c(F)c1` [Ro 48-8071, 4′-[6-(Allylmethylamino)hexyloxy]-4-bromo-2′-fluorobenzophenone fumarate], the IC50 in series [1] (setting [8]) is 18.1 ± 3.22 µM; in [1] (setting [9]), 11.8 ± 0.431 µM; with LoVo colon cancer cells (setting [8]), 9.461 ± 0.07 µM; in the series with LoVo colon cancer cells (setting [9]), 3.27 ± 0.541 µM; in series [2] (setting [8]) it was 11 ± 0.289 µM; in series [2] (setting [9]), 7.63 ± 0.304 µM. For the same compound, the IC50 in [3] (setting [8]) was found to be 12.3 ± 0.585 µM; in series [3] (setting [9]), 6.33 ± 0.344 µM; in [4] (setting [8]) it was 9.514 ± 0.05 µM; in [4] (setting [9]), 6.06 ± 0.233 µM; in series [5] (setting [8]), 14.6 ± 0.417 µM; in [5] (setting [9]), 11.6 ± 0.336 µM. The concentration for half-maximal inhibition (IC50) in the series on A549 lung cancer cells (setting [8]) was determined as 13.5 ± 0.928 µM; with A549 lung cancer cells (setting [9]) it was 9.26 ± 0.454 µM; in series [7] (setting [8]), 17.8 ± 1.29 µM; in series [7] (setting [9]) it was 11.1 ± 0.35 µM. Moreover, the “effect on cell viability (SRB)” value in series [4] (BT-474, 24 hours, dose-dependent, FIG. 2A) is recorded as “significantly inhibit the viability”. Further, the “tumor volume versus control group” value in series [6] (5 or 10 mg/kg/day, tail-vein injection, P<0.05 ANOVA, FIG. 13A) was “Significant differences were observed compared with control group”. For the same compound, the “toxicity at doses used for inhibiting tumor growth” value in series [6] (BT-474 tumor-bearing nude mice) is given as “non-toxic”. Further, in [6] (BT-474 tumor-bearing nude mice, FIG. 13B), the “animal weight, control versus treated groups” value is given as “No significant difference”.
